EP0908457B1, “3-(1,2-benzisothiazol- and isoxazol-5-Y1)-2,4(1H,3H)-pyrimidinedione or thione and 3-(1,2-benzisothiazol- and isoxazol-5-y1)-4(3H)-pyrimidinone or thione herbicidal agents” (BASF AKTIENGESELLSCHAFT, priority 1997, dated 1999)

Columns and labels:
[1] = test system: Cyperus serotinus, Rottb.; assay: Preemergence weed control under flooded paddy conditions, CYPSE (Flatsedge); assay type: in vivo; settings: rated three to four weeks after treatment; on herbicidal effect rating, CYPSE: meaning of each grade not given here
[2] = test system: Monochoria vaginalis, Presl.; assay: Preemergence weed control under flooded paddy conditions, MOOVA (Monochoria); assay type: in vivo; settings: flooded paddy, rated three to four weeks after treatment; on herbicidal effect rating, MOOVA: meaning of each grade not given here
Sagittaria pygmaea, L. = assay: Preemergence weed control under flooded paddy conditions, SAGPY (Arrowhead (Pygmaea)); assay type: in vivo; settings: flooded paddy, rated three to four weeks after treatment; on herbicidal effect rating, SAGPY: meaning of each grade not given here
[3] = test system: Oryza sativa, (L.) Tebonnet; assay: Rice tolerance to post-transplant applications under flooded paddy conditions (Example 187), ORYSAT (Rice, Tebonnet); settings: rated three to four weeks after treatment; on herbicidal effect rating ORYSAT: meaning of each grade not given here
[4] = test system: Echinochloa oryzoides (Ard.) Fritsch.; assay: Preemergence weed control under flooded paddy conditions, ECHORC (Watergrass (Calif.)); assay type: in vivo; settings: flooded paddy, rated three to four weeks after treatment; on herbicidal effect rating, ECHORC: meaning of each grade not given here
Cyperus iria = assay: Preemergence weed control under flooded paddy conditions, CYPIR (Rice Flatsedge); assay type: in vivo; settings: flooded paddy, rated three to four weeks after treatment; on herbicidal effect rating, CYPIR: meaning of each grade not given here
[5] = 0.2500 kg/ha, preemergence weeds
[6] = Rate 0.0313 kg/ha, preemergence
[7] = Rate 0.0625 kg/ha, preemergence
[8] = Rate 0.1250 kg/ha, preemergence
[9] = 0.0313 kg/ha, preemergence weeds
[10] = 0.0625 kg/ha, preemergence weeds
[11] = 0.1250 kg/ha, preemergence weeds
[12] = Rate 0.0320 kg/ha, preemergence
[13] = Rate 0.0620 kg/ha, preemergence
[14] = Rate 0.2500 kg/ha, preemergence

COC(=O)C(C)Oc1ccc(C)cc1-c1nsc2ccc(-n3c(=S)cc(C(F)(F)F)n(C)c3=O)cc12 (stereo not drawn) [Example 33, Methyl 2-{{2-{5-[3,6-dihydro-3-methyl-2-oxo-6-thioxo-4-(trifluoromethyl)-1(2H)-pyrimidinyl]-1,2-benzisothiazol-3-yl}-p-tolyl}oxy}propionate]
herbicidal effect rating, CYPSE ([1]; 0.0313 kg/ha, preemergence): 0.0 | herbicidal effect rating, CYPSE ([1]; 0.0625 kg/ha, preemergence): 0.0 | herbicidal effect rating, CYPSE ([1]; 0.1250 kg/ha, preemergence): 0.0 | herbicidal effect rating, CYPSE ([1]; 0.2500 kg/ha, preemergence): 0.0 | herbicidal effect rating, MOOVA ([2]; 0.0313 kg/ha, preemergence): 9.0 | herbicidal effect rating, MOOVA ([2]; 0.0625 kg/ha, preemergence): 9.0 | herbicidal effect rating, MOOVA ([2]; 0.1250 kg/ha, preemergence): 9.0 | herbicidal effect rating, MOOVA ([2]; 0.2500 kg/ha, preemergence): 9.0 | herbicidal effect rating, SAGPY (Sagittaria pygmaea, L.; 0.0313 kg/ha, preemergence): 0.0 | herbicidal effect rating, SAGPY (Sagittaria pygmaea, L.; 0.0625 kg/ha, preemergence): 0.0 | herbicidal effect rating, SAGPY (Sagittaria pygmaea, L.; 0.1250 kg/ha, preemergence): 0.0 | herbicidal effect rating, SAGPY (Sagittaria pygmaea, L.; 0.2500 kg/ha, preemergence): 0.0 | herbicidal effect rating, ORYSAT (rice tolerance) ([3]; 0.0313 kg/ha): 2.0 | herbicidal effect rating, ORYSAT (rice tolerance) ([3]; 0.0625 kg/ha): 3.0 | herbicidal effect rating, ORYSAT (rice tolerance) ([3]; 0.1250 kg/ha): 3.0 | herbicidal effect rating, ORYSAT (rice tolerance) ([3]; 0.2500 kg/ha): 3.5 | herbicidal effect rating, ECHORC ([4]; 0.0313 kg/ha, preemergence): 7.5 | herbicidal effect rating, ECHORC ([4]; 0.0625 kg/ha, preemergence): 8.5 | herbicidal effect rating, ECHORC ([4]; 0.1250 kg/ha, preemergence): 9.0 | herbicidal effect rating, ECHORC ([4]; 0.2500 kg/ha, preemergence): 9.0 | herbicidal effect rating, CYPIR (Cyperus iria; 0.0313 kg/ha, preemergence): 0.0 | herbicidal effect rating, CYPIR (Cyperus iria; 0.0625 kg/ha, preemergence): 0.0 | herbicidal effect rating, CYPIR (Cyperus iria; 0.1250 kg/ha, preemergence): 2.0 | herbicidal effect rating, CYPIR (Cyperus iria; 0.2500 kg/ha, preemergence): 4.0

Cn1c(C(F)(F)F)cc(=O)n(-c2ccc3snc(COC(CF)CF)c3c2)c1=O [Example 207, 3-{3-{[2-Fluoro-1-(fluoromethyl)ethoxy]methyl}-1,2-benzisothiazol-5-yl}-1-methyl-6-(trifluoromethyl)-2,4(1H,3H)-pyrimidinedione]
herbicidal effect rating, CYPSE [1, 5]: 6.0 | CYPSE herbicidal effect rating [1, 6]: 0.0 | CYPSE herbicidal effect rating [1, 7]: 0.0 | CYPSE herbicidal effect rating [1, 8]: 1.0 | herbicidal effect rating, MOOVA [2, 5]: 7.5 | MOOVA herbicidal effect rating [2, 6]: 4.0 | MOOVA herbicidal effect rating [2, 7]: 4.5 | MOOVA herbicidal effect rating [2, 8]: 5.5 | herbicidal effect rating, SAGPY (Sagittaria pygmaea, L.; [5]): 1.0 | SAGPY herbicidal effect rating (Sagittaria pygmaea, L.; [6]): 0.0 | SAGPY herbicidal effect rating (Sagittaria pygmaea, L.; [7]): 0.0 | SAGPY herbicidal effect rating (Sagittaria pygmaea, L.; [8]): 0.0 | herbicidal effect rating, ORYSAT (rice tolerance) ([3]; 0.2500 kg/ha): 7.5 | ORYSAT herbicidal effect rating ([3]; Rate 0.0313 kg/ha): 5.0 | ORYSAT herbicidal effect rating ([3]; Rate 0.0625 kg/ha): 6.0 | ORYSAT herbicidal effect rating ([3]; Rate 0.1250 kg/ha): 7.0 | herbicidal effect rating, ECHORC [4, 5]: 5.5 | ECHORC herbicidal effect rating [4, 6]: 1.0 | ECHORC herbicidal effect rating [4, 7]: 1.5 | ECHORC herbicidal effect rating [4, 8]: 2.0 | herbicidal effect rating, CYPIR (Cyperus iria; [5]): 8.5 | CYPIR herbicidal effect rating (Cyperus iria; [6]): 5.5 | CYPIR herbicidal effect rating (Cyperus iria; [7]): 6.5 | CYPIR herbicidal effect rating (Cyperus iria; [8]): 8.5

CC(C)=CCOC(=O)COc1ccc(C)cc1-c1nsc2ccc(-n3c(=O)cc(C(F)(F)F)n(C)c3=O)cc12 [Example 187, 3-Methyl-2-butenyl {{2-{5-[3,6-dihydro-3-methyl-2,6-dioxo-4-(trifluoromethyl)-1(2H)-pyrimidinyl]-1,2-benzisothiazol-3-yl}-p-tolyl}oxy}acetate]
herbicidal effect rating, CYPSE [1, 9]: 0.0 | herbicidal effect rating, CYPSE [1, 10]: 0.0 | herbicidal effect rating, CYPSE [1, 11]: 0.0 | herbicidal effect rating, CYPSE [1, 5]: 0.0 | herbicidal effect rating, MOOVA [2, 9]: 8.0 | herbicidal effect rating, MOOVA [2, 10]: 9.0 | herbicidal effect rating, MOOVA [2, 11]: 9.0 | herbicidal effect rating, MOOVA [2, 5]: 9.0 | herbicidal effect rating, SAGPY (Sagittaria pygmaea, L.; [9]): 0.0 | herbicidal effect rating, SAGPY (Sagittaria pygmaea, L.; [10]): 0.0 | herbicidal effect rating, SAGPY (Sagittaria pygmaea, L.; [11]): 0.0 | herbicidal effect rating, SAGPY (Sagittaria pygmaea, L.; [5]): 0.0 | herbicidal effect rating, ORYSAT (rice tolerance) ([3]; 0.0313 kg/ha): 2.0 | herbicidal effect rating, ORYSAT (rice tolerance) ([3]; 0.0625 kg/ha): 3.0 | herbicidal effect rating, ORYSAT (rice tolerance) ([3]; 0.1250 kg/ha): 3.0 | herbicidal effect rating, ORYSAT (rice tolerance) ([3]; 0.2500 kg/ha): 6.0 | herbicidal effect rating, ECHORC [4, 9]: 0.0 | herbicidal effect rating, ECHORC [4, 10]: 2.0 | herbicidal effect rating, ECHORC [4, 11]: 6.0 | herbicidal effect rating, ECHORC [4, 5]: 9.0 | herbicidal effect rating, CYPIR (Cyperus iria; [9]): 0.0 | herbicidal effect rating, CYPIR (Cyperus iria; [10]): 0.0 | herbicidal effect rating, CYPIR (Cyperus iria; [11]): 2.0 | herbicidal effect rating, CYPIR (Cyperus iria; [5]): 4.0

Cn1c(C(F)(F)F)cc(=O)n(-c2ccc3snc(C(=O)NS(=O)(=O)c4ccc(Cl)cc4)c3c2)c1=O [Example 356, 1,2-Benzisothiazole-3-carboxamide, N-[(p-chlorophenyl)sulfonyl]-5-[3,6-dihydro-3-methyl-2,6-dioxo-4-(trifluoromethyl)-1(2H)-pyrimidinyl]-]
herbicidal effect rating, CYPSE [1, 12]: 0.0 | herbicidal effect rating, CYPSE [1, 13]: 0.0 | herbicidal effect rating, CYPSE [1, 8]: 5.0 | herbicidal effect rating, CYPSE [1, 14]: 6.5 | herbicidal effect rating, MOOVA [2, 12]: 7.5 | herbicidal effect rating, MOOVA [2, 13]: 9.0 | herbicidal effect rating, MOOVA [2, 8]: 9.0 | herbicidal effect rating, MOOVA [2, 14]: 9.0 | herbicidal effect rating, SAGPY (Sagittaria pygmaea, L.; [12]): 4.5 | herbicidal effect rating, SAGPY (Sagittaria pygmaea, L.; [13]): 4.5 | herbicidal effect rating, SAGPY (Sagittaria pygmaea, L.; [8]): 5.5 | herbicidal effect rating, SAGPY (Sagittaria pygmaea, L.; [14]): 8.0 | herbicidal effect rating ORYSAT ([3]; Rate 0.0320 kg/ha): 0.5 | herbicidal effect rating ORYSAT ([3]; Rate 0.0620 kg/ha): 2.5 | herbicidal effect rating ORYSAT ([3]; Rate 0.1250 kg/ha): 4.5 | herbicidal effect rating ORYSAT ([3]; Rate 0.2500 kg/ha): 2.0 | herbicidal effect rating, ECHORC [4, 12]: 3.5 | herbicidal effect rating, ECHORC [4, 13]: 5.0 | herbicidal effect rating, ECHORC [4, 8]: 6.5 | herbicidal effect rating, ECHORC [4, 14]: 9.0 | herbicidal effect rating, CYPIR (Cyperus iria; [12]): 6.5 | herbicidal effect rating, CYPIR (Cyperus iria; [13]): 9.0 | herbicidal effect rating, CYPIR (Cyperus iria; [8]): 9.0 | herbicidal effect rating, CYPIR (Cyperus iria; [14]): 9.0
